SMILES strings stand for the structures.

The assay has as its system angiotensin II receptor. The assay is described as follows: Angiotensin II receptor binding assay ([3H] angiotensin II displacement). Particulars: 60 minutes at 25° C., pH 7.2, test concentration not given. As to the method: The inventive compounds were tested to measure their angiotensin II receptor binding capacity as follows.
1. Angiotensin II receptor binding assay
In accordance with the procedure disclosed in Chiu, A. T. et al., Eur. J. Pharm., 157, 13 ([…])t a ligand marked with a radioistope was reacted with an angiotensin II receptor and the reactant was filtered with a glass fiber to remove unreacted ligand. After washing the filter, the amount of the remaining isotope was measured to determine the binding activity of the ligand, as described below in detail.
(i) Isolation of angiotensin II receptor
Sprague-Dawley rats and Wistar rats of 250 to 350 g (from The Korea Research Institute of Chemical Technology) were tested and the test procedures were carried out at 4° C., unless otherwise specified. Adrenal gland was separated from the Sprague-Dawley rats (liver, in the case of Wistar rats) into cortex and medulla. The separated adrenal cortex and medulla were washed with a sucrose buffer solution (0.2M sucrose, 1 mM EDTA, 10 mM Tris, pH 7.2) and homogenized in the same buffer solution by using a Teflon pestle and a Brinkmann homogenizer. The homogenates were centrifuged at 3,000× g for 10 minutes to remove precipitates and further centrifuged at 12,000× g for 13 minutes. The final supernatants were centrifuged at 102,000× g for 1 hour to obtain precipitates, which were washed with a Tris buffer solution (50 mM Tris, 5 mM MgCl2, pH 7.2) and re-centrifuged at 102,000× g for 1 hour. The resulting precipitates were immediately processed at the following step or stored at -70° C.
The precipitates were suspended in a Tris buffer solution. The amount of protein was determined by using a Bio-Rad DC protein analyzing kit and the protein concentration was adjusted to the amounts of: 0.2 to 0.3 mg/ml (Sprague-Dawley rat: adrenal cortex), 1.5 to 2.0 mg/ml (Sprague-Dawley rat: adrenal medulla), and 1.5 to 2.0 mg/ml (Wistar rat: liver). To the suspension, bovine serum albumin (BSA) was added to a concentration of 0.25 wt % and the resultant was immediately processed at the following step or stored at -70° C.
(ii) Measurement of angiotensin II receptor binding capacity
50 μl (based on ligand) of [^3 H] angiotensin II (NEN, NET-446) and 10 μl of each of the test compounds with various concentrations were added to the buffer solution (50 mM Tris (pH 7.2), 5 mM MgCl2, 0.25% BSA) to adjust the final volume to be 0.5 ml. Losartan (Dup 753), which is disclosed in EP No. 400,974 issued to Merck, was used as the control compound. 100 μl of the receptor suspension was added thereto and the resulting solution was reacted for 60 minutes while stirring in a water bath at 25° C. 3 ml of cold buffer solution for analysis was added to cease the reaction. The isotope which was bound to the receptor was isolated from the resultant by using Brandel Cell Harvester System with Whatman glass fiber GF/C. After washing the filter, the radioactivity of the filter was determined by using a liquid scintillation counter. Binding inhibition (%) of the test compound was calculated as follows:
Binding Inhibition (%)=[{(T-B)-(S-B)}/(T-B)]×100
wherein T is the radioactivity (cpm) of the reaction product untreated with the test compound, S is the radioactivity (cpm) of the reaction product treated with the test compound, and B is the radioactivity (cpm) of blank test.

With `CCCCc1nc(Cl)c(C(=O)c2cccc(C(OC)OC)[n+]2[O-])n1Cc1ccc(-c2ccccc2-c2nn[nH]n2)cc1` [Compound 1, {2-butyl-5-chloro-3-[(2'-(1H-tetrazol-5-yl)biphenyl-4-yl)methyl]-3H-imidazol-4-yl}[6-(dimethoxymethyl)-1-oxypyridin-2-yl]methanone], the “Binding Inhibition (%)” value amounted to 91.1%. The same measure for `CCCCc1nc(Cl)c(C(=O)c2cccc(C=O)[n+]2[O-])n1Cc1ccc(-c2ccccc2-c2nn[nH]n2)cc1` [Compound 2, {2-butyl-5-chloro-3-[(2'-(1H-tetrazol-5-yl)biphenyl-4-yl)methyl]-3H-imidazol-4-yl}(6-formyl-1-oxypyridin-2-yl)methanone]: 95.0%. The same measure for `CCCCc1nc(Cl)c(C(=O)c2cccc(CO)[n+]2[O-])n1Cc1ccc(-c2ccccc2-c2nn[nH]n2)cc1` [Compound 3, {2-butyl-5-chloro-3-[(2'-(1H-tetrazol-5-yl)biphenyl-4-yl)methyl]-3H-imidazol-4-yl}(6-hydroxymethyl-1-oxypyridin-2-yl)methanone]: 96.3%.

`CCCCc1nc(Cl)c(C(O)c2cccc(C(OC)OC)n2)n1Cc1ccc(-c2ccccc2-c2nnn[nH]2)cc1` (stereo not shown) [Compound 4, {2-butyl-5-chloro-3-[(2'-(1H-tetrazol-5-yl)biphenyl-4-yl)methyl]-3H-imidazol-4-yl}[6-(dimethoxymethyl)pyridin-2-yl]methanol]: the “Binding Inhibition (%)” value was found to be 71.2%. In the case of `CCCCc1nc(Cl)c(C(O)c2cccc(C=O)n2)n1Cc1ccc(-c2ccccc2-c2nnn[nH]2)cc1` (stereo not shown) [Compound 5, {2-butyl-5-chloro-3-[(2'-(1H-tetrazol-5-yl)biphenyl-4-yl)methyl]-3H-imidazol-4-yl}(6-formylpyridin-2-yl)methanol], the “Binding Inhibition (%)” value was determined as 64.9%. The same measure for `CCCCc1nc(Cl)c(C(=O)c2cccc(C(OC)OC)n2)n1Cc1ccc(-c2ccccc2-c2nnn[nH]2)cc1` [Compound 6, {2-butyl-5-chloro-3-[(2'-(1H-tetrazol-5-yl)biphenyl-4-yl)methyl]-3H-imidazol-4-yl}[6-(dimethoxymethyl)pyridin-2-yl]methanone]: 91.2%; for `CCCCc1nc(Cl)c(C(=O)c2cccc(C=O)n2)n1Cc1ccc(-c2ccccc2-c2nnn[nH]2)cc1` [Compound 7, {2-butyl-5-chloro-3-[(2'-(1H-tetrazol-5-yl)biphenyl-4-yl)methyl]-3H-imidazol-4-yl}(6-formylpyridin-2-yl)methanone]: 79.8%. For the compound `CCCCc1nc(Cl)c(C(=O)c2cccc(CO)n2)n1Cc1ccc(-c2ccccc2-c2nnn[nH]2)cc1` [Compound 8, {2-butyl-5-chloro-3-[(2'-(1H-tetrazol-5-yl)biphenyl-4-yl)methyl]-3H-imidazol-4-yl}[6-(hydroxymethyl)pyridin-2-yl]methanone], the “Binding Inhibition (%)” value is given as 68.9%. For the compound `CCCCc1nc(Cl)c(C(O)c2cccc(CN(CC)CC)[n+]2[O-])n1Cc1ccc(-c2ccccc2-c2nn[nH]n2)cc1` (stereo not shown) [Compound 9, {2-butyl-5-chloro-3-[(2'-(1H-tetrazol-5-yl)biphenyl-4-yl)methyl]-3H-imidazol-4-yl}[6-(diethylamino)methyl-1-oxypyridin-2-yl]methanol], the “Binding Inhibition (%)” value turned out to be 30.5%. Take `CCCCc1nc(Cl)c(C(=O)c2cccc(CN(CC)CC)[n+]2[O-])n1Cc1ccc(-c2ccccc2-c2nn[nH]n2)cc1` [Compound 10, {2-butyl-5-chloro-3-[(2'-(1H-tetrazol-5-yl)biphenyl-4-yl)methyl]-3H-imidazol-4-yl}[6-(diethylamino)methyl-1-oxypyridin-2-yl]methanone]: the “Binding Inhibition (%)” value was found to be 91.1%. The same measure for `CCCCc1nc(Cl)c(C(=O)c2cccc(C[N+]([O-])(CC)CC)[n+]2[O-])n1Cc1ccc(-c2ccccc2-c2nn[nH]n2)cc1` [Compound 11, {2-butyl-5-chloro-3-[(2'-(1H-tetrazol-5-yl)biphenyl-4-yl)methyl]-3H-imidazol-4-yl}[6-((diethyl)(oxy)amino)methyl-1-oxypyridin-2-yl]methanone]: 99.9%; for `CCCCc1nc(Cl)c(C(O)c2cccc(CN(CC)CC)n2)n1Cc1ccc(-c2ccccc2-c2nnn[nH]2)cc1` (stereo not shown) [Compound 12, {2-butyl-5-chloro-3-[(2'-(1H-tetrazol-5-yl)biphenyl-4-yl)methyl]-3H-imidazol-4-yl}[6-((diethylamino)methyl)pyridin-2-yl]methanol]: 63.2%.

Take `CCCCc1nc(Cl)c(C(=O)c2cccc(CN(CC)CC)n2)n1Cc1ccc(-c2ccccc2-c2nnn[nH]2)cc1` [Compound 13, {2-butyl-5-chloro-3-[(2'-(1H-tetrazol-5-yl)biphenyl-4-yl)methyl]-3H-imidazol-4-yl}[6-((diethylamino)methyl)pyridin-2-yl]methanone]: the “Binding Inhibition (%)” value worked out at 90.5%. Next, `CCCCc1nc(Cl)c(C(=O)c2cccc(C[N+]([O-])(CC)CC)n2)n1Cc1ccc(-c2ccccc2-c2nn[nH]n2)cc1` [Compound 14, {2-butyl-5-chloro-3-[(2'-(1H-tetrazol-5-yl)biphenyl-4-yl)methyl]-3H-imidazol-4-yl}[6-[((diethyl)(oxy)amino)methyl]pyridin-2-yl]methanone]: 92.1%; `CCCCc1nc(Cl)c(C(=O)c2cccc(Br)[n+]2[O-])n1Cc1ccc(-c2ccccc2-c2nn[nH]n2)cc1` [Compound 15, {2-butyl-5-chloro-3-[(2'-(1H-tetrazol-5-yl)biphenyl-4-yl)methyl]-3H-imidazol-4-yl}(6-bromo-1-oxypyridin-2-yl)methanone]: 88.6%; `CCCCc1nc(Cl)c(C(O)c2cccc(Br)[n+]2[O-])n1Cc1ccc(-c2ccccc2-c2nn[nH]n2)cc1` (stereo not shown) [Compound 16]: 62.9%. The same measure for `CCCCc1nc(Cl)c(C(=O)c2cccc(Br)n2)n1Cc1ccc(-c2ccccc2-c2nnn[nH]2)cc1` [Compound 17, {2-butyl-5-chloro-3-[(2'-(1H-tetrazol-5-yl)biphenyl-4-yl)methyl]-3H-imidazol-4-yl}(6-bromopyridin-2-yl)methanone]: 50.3%; for `CCCCc1nc(Cl)c(C(O)c2cccc(Br)n2)n1Cc1ccc(-c2ccccc2-c2nnn[nH]2)cc1` (stereo not shown) [Compound 18, {2-butyl-5-chloro-3-[(2'-(1H-tetrazol-5-yl)biphenyl-4-yl)methyl]-3H-imidazol-4-yl}(6-bromopyridin-2-yl)methanol]: 57.1%; for `CCCCc1nc(Cl)c(C(=O)c2cccc(C(C)O)[n+]2[O-])n1Cc1ccc(-c2ccccc2-c2nn[nH]n2)cc1` (stereo not shown) [Compound 19, {2-butyl-5-chloro-3-[(2'-(1H-tetrazol-5-yl)biphenyl-4-yl)methyl]-3H-imidazol-4-yl}[6-(1-hydroxyethyl)-1-oxypyridin-2-yl]methanone]: 88.7%. Regarding `CCCCc1nc(Cl)c(C(=O)c2cccc(C(C)=O)[n+]2[O-])n1Cc1ccc(-c2ccccc2-c2nn[nH]n2)cc1` [Compound 20, {2-butyl-5-chloro-3-[(2'-(1H-tetrazol-5-yl)biphenyl-4-yl)methyl]-3H-imidazol-4-yl}(6-acetyl-1-oxypyridin-2-yl)methanone], the “Binding Inhibition (%)” value was 89.0%. As to `CCCCc1nc(Cl)c(C(=O)c2cccc(C(=O)OC)[n+]2[O-])n1Cc1ccc(-c2ccccc2-c2nn[nH]n2)cc1` [Compound 21, {2-butyl-5-chloro-3-[(2'-(1H-tetrazol-5-yl)biphenyl-4-yl)methyl]-3H-imidazol-4-yl}(6-methoxycarbonyl-1-oxypyridin-2-yl)methanone], the “Binding Inhibition (%)” value came to 86.5%. The same measure for `CCCCc1nc(Cl)c(C(=O)c2ccc(C(OC)OC)c[n+]2[O-])n1Cc1ccc(-c2ccccc2-c2nn[nH]n2)cc1` [Compound 22, {2-butyl-5-chloro-3-[(2'-(1H-tetrazol-5-yl)biphenyl-4-yl)methyl]-3H-imidazol-4-yl}[5-(dimethoxymethyl)-1-oxypyridin-2-yl]methanone]: 90.1%.

These data come from patent US5665738A, “Imidazole derivatives and processes for the preparation thereof” (Korea Research Institute of Chemical Technology, priority 1994, dated 1997).
